Test results as given in patent US12240862B2, “Inhibitors of peptidylarginine deiminases” (Gilead Sciences, Inc., priority 2020, dated 2025).

Target: T1, human PAD4 (Homo sapiens, UniProt Q9UM07)
T1 construct: human PAD4 (NM_012387), A2P663, was PCR amplified; His-SUMO (N, cleaved yes); made in house; host or cells: E. coli BL21(DE3)
Assay: In vitro PAD4 BAEE biochemical assay
Settings: human PAD4, BAEE substrate; 5 nM PAD4, 2 mM calcium chloride, 3 mM BAEE; geometric mean of multiple experiments
Method in brief: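 Ammonia generated from BAEE serves as the readout, measured by o-phthalaldehyde after EDTA termination. Final conditions: 5 nM human PAD4 (SUMO tag cleaved), 2 mM CaCl2, 3 mM BAEE, pH 7.6 MOPS buffer, 25 °C for 2 h following a 30-min compound preincubation.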

T1 sequence (Q9UM07 2-663): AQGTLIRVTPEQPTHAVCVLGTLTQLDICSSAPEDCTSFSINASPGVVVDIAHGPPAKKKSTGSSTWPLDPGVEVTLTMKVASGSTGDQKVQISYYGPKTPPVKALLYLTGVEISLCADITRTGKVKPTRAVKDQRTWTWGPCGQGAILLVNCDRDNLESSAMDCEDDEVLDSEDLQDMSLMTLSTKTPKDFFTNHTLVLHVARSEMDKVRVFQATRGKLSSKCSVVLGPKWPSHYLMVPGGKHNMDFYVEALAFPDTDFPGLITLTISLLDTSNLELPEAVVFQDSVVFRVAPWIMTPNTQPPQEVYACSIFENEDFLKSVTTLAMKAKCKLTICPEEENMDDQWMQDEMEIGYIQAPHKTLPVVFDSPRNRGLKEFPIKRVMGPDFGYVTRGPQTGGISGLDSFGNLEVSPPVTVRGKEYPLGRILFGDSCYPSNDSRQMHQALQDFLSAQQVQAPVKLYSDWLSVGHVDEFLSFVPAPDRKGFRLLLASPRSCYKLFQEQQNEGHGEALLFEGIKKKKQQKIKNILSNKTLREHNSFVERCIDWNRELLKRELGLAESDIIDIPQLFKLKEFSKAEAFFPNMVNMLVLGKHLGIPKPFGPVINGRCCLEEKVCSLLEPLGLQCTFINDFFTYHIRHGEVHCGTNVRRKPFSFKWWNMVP

IC50 [nM]	Structure (SMILES)
711	COc1cc(C(=O)N2C[C@H](N)CC[C@@H]2C)cc2nc(-c3cc4ccc(-c5c(C)nn(CC(N)=O)c5C)nc4n3CC3CC3)c(C)n12 [Example 609, 2-[4-[2-[7-[(2~{S}, 5~{R})-5-amino-2-methylpiperidine-1-carbonyl]-5-methoxy-3-methylimidazo [1,2-a]pyridin-2-yl]-1-(cyclopropylmethyl)pyrrolo [2,3-b]pyridin-6-yl]-3,5-dimethylpyrazol-1-yl]acetamide]
328	COc1cc(C(=O)N2[C@H]3CC[C@@H]2[C@H](N)C3)cc2nc(-c3cc4ccc([C@@H](C)NC(=O)C5(COC(F)(F)F)CC5)nc4n3CC3CC3)c(C)n12 [Example 138, ~{N}-[(1~{R})-1-[2-[7-[(1~{R},2~{R},4~{S})-2-amino-7-azabicyclo[2.2.1]heptane-7-carbonyl]-5-methoxy-3-methylimidazo [1,2-a]pyridin-2-yl]-1-(cyclopropylmethyl)pyrrolo [2,3-b]pyridin-6-yl]ethyl]-1-(trifluoromethoxymethyl) cyclopropane-1-carboxamide]
130	COc1cc(C(=O)N2[C@H]3CC[C@@H]2[C@H](N)C3)cc2nc(-c3cc4ccc(-c5cccnc5C)nc4n3CC3CC3)c(C)n12 [Example 575, ((1R,2R,4S)-2-amino-7-azabicyclo[2.2.1]heptan-7-yl)(2-(1-(cyclopropylmethyl)-6-(2-methylpyridin-3-yl)-1H-pyrrolo[2,3-b]pyridin-2-yl)-5-methoxy-3-methylimidazo[1,2-a]pyridin-7-yl)methanone]
486	COc1cc(C(=O)N2CCC[C@@H](N)C2)cc2nc(-c3cc4ccc([C@@H](C)NC(=O)OCC(C)(C)C)nc4n3CC3CC3)c(C)n12 [Example 256, 2,2-dimethylpropyl~{N}-[(1~{R})-1-[2-[7-[(3~ {R})-3-aminopiperidine-1-carbonyl]-5-methoxy-3-methylimidazo[1,2-a]pyridin-2-yl]-1-(cyclopropylmethyl)pyrrolo [2,3-b]pyridin-6-yl]ethyl] carbamate]
300	COc1cc(C(=O)N2CCC[C@@H](N)C2)cc2nc(-c3cc4ccc([C@@H](C)N(C)C(C)=O)nc4n3CC3CC3)c(C)n12 [Example 187, ~{N}-[(1~{R})-1-[2-[7-[(3~{R})-3-aminopiperidine-1-carbonyl]-5-methoxy-3-methylimidazo [1,2-a]pyridin-2-yl]-1-(cyclopropylmethyl)pyrrolo [2,3-b]pyridin-6-yl]ethyl]-~{N}-methylacetamide]
134	COc1cc(C(=O)N2[C@H]3CC[C@@H]2[C@H](N)C3)cc2nc(-c3cc4ccc(C5CCN(C(C)=O)C5)nc4n3CC3CC3)c(C)n12 (some centres unmarked) [Example 531]
136	Cc1c(-c2cc3ccc(N(C(F)F)S(C)(=O)=O)nc3n2CC2CC2)nc2cc(C(=O)N3[C@@H]4CC[C@@H](N)[C@H]3CC4)ccn12 [Example 401, ~{N}-[2-[7-[(1~{R},2~{R}, 5~{R})-2-amino-8-azabicyclo[3.2.1]octane-8-carbonyl]-3-methylimidazo [1,2-a]pyridin-2-yl]-1-(cyclopropylmethyl)pyrrolo [2,3-b]pyridin-6-yl]-~{N}-(difluoromethyl) methanesulfonamide]
689	COc1cc(C(=O)N2[C@H]3CC[C@@H]2[C@H](N)C3)cc2nc(-c3cc4ccc(C(NC(=O)C(C)(C)C)C(F)(F)F)nc4n3CC3CC3)c(C)n12 (some centres unmarked) [Example 192, ~{N}-[1-[2-[7-[(1~{R},2~{R},4~{S})-2-amino-7-azabicyclo[2.2.1]heptane-7-carbonyl]-5-methoxy-3-methylimidazo [1,2-a]pyridin-2-yl]-1-(cyclopropylmethyl)pyrrolo [2,3-b]pyridin-6-yl]-2,2,2-trifluoroethyl]-2,2-dimethylpropanamide]
1170	C[C@H]1CC[C@@H](N)CN1C(=O)c1ccn2c(C(F)F)c(-c3cc4ccc(N(C(F)F)S(C)(=O)=O)nc4n3CC3CC3)nc2c1 [Example 409, ~{N}-[2-[7-[(2~{S},5~{R})-5-amino-2-methylpiperidine-1-carbonyl]-3-(difluoromethyl)imidazo [1,2-a]pyridin-2-yl]-1-(cyclopropylmethyl)pyrrolo [2,3-b]pyridin-6-yl]-~{N}-(difluoromethyl) methanesulfonamide]
2700	COc1cc(C(=O)N2C[C@H]3C[C@H](C)[C@@H]2[C@@H]3N)cc2nc(-c3cc4ccc([C@@H](C)NC(=O)C(C)(C)C)nc4n3CC3CC3)c(C)n12 [Example 167, N-((R)-1-(2-(7-((1R,4R,6S,7R)-7-amino-6-methyl-2-azabicyclo[2.2.1]heptane-2-carbonyl)-5-methoxy-3-methylimidazo [1,2-a]pyridin-2-yl)-1-(cyclopropylmethyl)-1H-pyrrolo [2,3-b]pyridin-6-yl)ethyl) pivalamide]
28	COc1cc(C(=O)N2CCC[C@@H](N)C2)cc2nc(-c3cc4ccc([C@@H](C)NC(=O)[C@H]5[C@@H]6CC(F)(F)C[C@@H]65)nc4n3CC3CC3)c(C)n12 [Example 9, (1~{R},5~{S})-~{N}-[(1~{R})-1-[2-[7-[(3~{R})-3-aminopiperidine-1-carbonyl]-5-methoxy-3-methylimidazo[1,2-a]pyridin-2-yl]-1-(cyclopropylmethyl)pyrrolo[2,3-b]pyridin-6-yl]ethyl]-3,3-difluorobicyclo[3.1.0] hexane-6-carboxamide]
361	COc1cc(C(=O)N2[C@H]3CC[C@@H]2[C@H](N)C3)cc2nc(-c3cc4ccc(C5CCCCN5C(=O)N5CCCC5)nc4n3CC3CC3)c(C)n12 (some centres unmarked) [Example 544, [(1~{R},2~{R},4~{S})-2-amino-7-azabicyclo [2.2.1]heptan-7-yl]-[2-[1-(cyclopropylmethyl)-6-[1-(pyrrolidine-1-carbonyl)piperidin-2-yl]pyrrolo [2,3-b]pyridin-2-yl]-5-methoxy-3-methylimidazo [1,2-a]pyridin-7-yl] methanone]
341	CNc1cc(C(=O)N2CCC[C@@H](N)C2)cc2nc(-c3cc4ccc(N(C(F)F)S(C)(=O)=O)nc4n3CC3CC3)c(C)n12 [Example 421, ~{N}-[2-[7-[(3~{R})-3-aminopiperidine-1-carbonyl]-3-methyl-5-(methylamino)imidazo[1,2-a]pyridin-2-yl]-1-(cyclopropylmethyl)pyrrolo [2,3-b]pyridin-6-yl]-~{N}-(difluoromethyl) methanesulfonamide]
165	CCN(C(=O)OC)c1ccc2cc(-c3nc4cc(C(=O)N5[C@H]6CC[C@@H]5[C@H](N)C6)cc(OC)n4c3C)n(CC3CC3)c2n1 [Example 470, methyl~{N}-[2-[7-[(1~{R},2~{R},4~{S})-2-amino-7-azabicyclo[2.2.1]heptane-7-carbonyl]-5-methoxy-3-methylimidazo [1,2-a]pyridin-2-yl]-1-(cyclopropylmethyl)pyrrolo [2,3-b]pyridin-6-yl]-~{N}-ethylcarbamate]
37.2	COc1cc(C(=O)N2[C@H]3CC[C@@H]2[C@H](N)C3)cc2nc(-c3cc4ccc([C@@H](C)NC(=O)C5C(F)(F)C56CC6)nc4n3CC3CC3)c(C)n12 (some centres unmarked) [Example 53, ~{N}-[(1~{R})-1-[2-[7-[(1~{R},2~{R}, 4~{S})-2-amino-7-azabicyclo[2.2.1]heptane-7-carbonyl]-5-methoxy-3-methylimidazo[1,2-a]pyridin-2-yl]-1-(cyclopropylmethyl)pyrrolo[2,3-b]pyridin-6-yl]ethyl]-2,2-difluorospiro[2.2] pentane-1-carboxamide]
204	COc1cc(C(=O)N2[C@@H]3CC[C@@H](N)[C@H]2CC3)cc2nc(-c3cc4ccc(N(C(F)F)S(C)(=O)=O)nc4n3CC3CC3)c(C3CC3)n12 [Example 382, ~{N}-[2-[7-[(1~{R},2~{R}, 5~{R})-2-amino-8-azabicyclo[3.2.1]octane-8-carbonyl]-3-cyclopropyl-5-methoxyimidazo[1,2-a]pyridin-2-yl]-1-(cyclopropylmethyl)pyrrolo [2,3-b]pyridin-6-yl]-~{N}-(difluoromethyl) methanesulfonamide]
34.7	COc1cc(C(=O)N2[C@H]3CC[C@@H]2[C@H](N)C3)cc2nc(-c3cc4ccc([C@@H](C)N5CCN(C)C5=O)nc4n3CC3CC3)c(C)n12 [Example 270, 1-[(1~{R})-1-[2-[7-[(1~{R},2~{R},4~{S})-2-amino-7-azabicyclo[2.2.1]heptane-7-carbonyl]-5-methoxy-3-methylimidazo [1,2-a]pyridin-2-yl]-1-(cyclopropylmethyl)pyrrolo [2,3-b]pyridin-6-yl]ethyl]-3-methylimidazolidin-2-one]
140	COc1cc(C(=O)N2C[C@H](N)[C@@H]3CC[C@H]2C3)cc2nc(-c3cc4ccc([C@@H](C)NC(=O)C56CC(C#N)(C5)C6)nc4n3CC3CC3)c(C3CC3)n12 [Example 632, N-((R)-1-(2-(7-((1S,4R,5R)-4-amino-2-azabicyclo[3.2.1]octane-2-carbonyl)-3-cyclopropyl-5-methoxyimidazo[1,2-a]pyridin-2-yl)-1-(cyclopropylmethyl)-1H-pyrrolo[2,3-b]pyridin-6-yl)ethyl)-3-cyanobicyclo [1.1.1]pentane-1-carboxamide]
6880	COc1cc(C(=O)N2CCC[C@@H](N)C2)cc2nc(-c3cc4ccc(-c5cccc6c5CN(C)C6=O)nc4n3CC3CC3)c(C)n12 [Example 601, 4-[2-[7-[(3~{R})-3-aminopiperidine-1-carbonyl]-5-methoxy-3-methylimidazo[1,2-a]pyridin-2-yl]-1-(cyclopropylmethyl)pyrrolo[2,3-b]pyridin-6-yl]-2-methyl-3~{H}-isoindol-1-one]

Structure (SMILES)	IC50 [nM]
COc1cc(C(=O)N2[C@H]3CC[C@@H]2[C@H](N)C3)cc2nc(-c3cc4ccc([C@@H](C)NC(=O)N5CCO[C@@H](C)C5)nc4n3CC3CC3)c(C)n12 [Example 201, (2~{S})-~{N}-[(1~{R})-1-[2-[7-[(1~{R},2~{R},4~{S})-2-amino-7-azabicyclo[2.2.1]heptane-7-carbonyl]-5-methoxy-3-methylimidazo [1,2-a]pyridin-2-yl]-1-(cyclopropylmethyl)pyrrolo [2,3-b]pyridin-6-yl]ethyl]-2-methylmorpholine-4-carboxamide]	17.4
